Measurements from patent US7928095B2, “Treatment of resistant or refractory cancers with multi-arm polymeric conjugates of 7-ethyl-10-hydroxycamptothecin” (Enzon Pharmaceuticals, Inc., priority 2007, dated 2011).

Columns and labels:
[1] = test system: refractory human HT-29 colorectal tumor; assay: Therapeutic efficacy in CPT-11 refractory human HT-29 colorectal tumor xenografted nude mice; type: in vivo
Procedure: Therapeutic efficacy of four-arm PET-Gly-(7-ethyl-10-hydroxycamptothecin) against a refractory human HT-29 colorectal tumor grown in nude mice was determined. […] When tumors reached an average volume of 100 mm^3, mice were treated with CPT-11 (40 mg/kg/dose; q2d×4). Mice were monitored for tumor growth. […] These mice were selected, randomized and divided into two groups. […] The drugs were administered intravenously via the tail vein.
The data in FIG. 1 represent mean±standard deviation (n=7).

[2] = test system: CPT-refractory cell line (CEM/C2); conditions: CEM/C2 cells, 2 days at 37° C., MTS; FIG. 3
Procedure: CPT-refractory cell line (CEM/C2) and the corresponding non-refractory parent cell line (CEM) were treated with PEG-Gly-(7-ethyl-10-hydroxycamptothecin), 7-ethyl-10-hydroxycamptothecin, and CPT-11. The CEM/C2 and CEM were obtained from NCI. The CEM cell lines are acute lymphoblastic leukemia cell lines. The in vitro cytotoxicity of each drug was determined using a MTS assay. […] At the end of the incubation, MTS dye was added and incubated for 2 to 3 hours at 37° C. and formation of a colored product (formazan) was measured at 490 nm. The % viability at each drug concentration was calculated as [OD test samples−background]/[OD controls (no treatment)−background]. Sigmoidal dose response curves were generated by plotting Log (Drug) as a function of % viability (survival) and IC50 values were calculated using the GraphPad Prism software.

[3] = test system: Human HT-29 colorectal tumors; assay: Therapeutic efficacy in HT-29 colorectal tumor xenografted mice, second round treatment after CPT-11; type: in vivo, nude mice
Procedure: When tumors reached an average volume of 100 mm^3, mice were treated with CPT-11 (40 mg/kg/dose; q2d×4). Mice were monitored for tumor growth. […] One group was further treated with MTD of CPT-11 (40 mg/kg/dose; q2d×5) and the other group was treated with MTD of four-arm ^40KPEG-Gly-(7-ethyl-10-hydroxycamptothecin) (10 mg/kg/dose q2d×5) starting day 16. The drugs were administered intravenously via the tail vein.
The data in FIG. 2 represent mean±standard deviation (n=10).

| Compound | mice with tumors <1,650 mm^3 ([1]; by day 72) [%] | tumor volume decreased compared to day 15 ([1]; day 42, CPT-11 refractory mice, 10 mg/kg/dose q2d×5 i.v. starting day 16) [%] | animals sacrificed ([1]; on day 63, n=7) | potency relative to CPT-11 (cytotoxicity IC50) [2] | tumor volume increased compared to day 1 ([3]; day 54, CPT-11 sensitive mice, second round treatment q2d×5 i.v. starting day 16) [%] | deaths recorded ([3]; on day 61) | animals sacrificed due to excessive tumor burden (>1,650 mm^3) ([1]; by day 42) [%] | animals sacrificed due to excessive tumor burden (>1,650 mm^3) ([1]; by day 54) [%] | animals sacrificed due to excessive tumor burden ([3]; as of day 61) [%] |
| --- | --- | --- | --- | --- | --- | --- | --- | --- | --- |
| four-arm ^40KPEG-Gly-(7-ethyl-10-hydroxycamptothecin) [compound 9] | 58 | 25 | 1 of 7 | about 10 fold | 193 | No deaths |  |  |  |
| CCc1c2c(nc3ccc(OC(=O)N4CCC(N5CCCCC5)CC4)cc13)-c1cc3c(c(=O)n1C2)COC(=O)[C@]3(O)CC [CPT-11, Irinotecan, reference compound] |  |  |  |  |  |  | 29 | 100 | 60 |
